Test results taken from patent publication US20200375958A1, “MEMBRANE ACTIVE MOLECULES” (priority 2017, published 2020).
Where “and” joins values, the source holds several entries; their conditions need not be identical. Equal values may be shown once. Read-outs that look alike come from different tables or passages of the source.

Key:
[1] = system: Tadpoles; experiment: Tadpole anesthesia test (movement suppressed on contact with rod); assay type: in vivo
Procedure: Tadpoles were placed in a petri dish containing aquarium water. Four to eight tadpoles were placed in each petri dish. The aquarium water contained the specified test compound at the listed concentration. When the tadpoles stopped moving, a plastic rod was used to elicit motion once again by contact between the rod and tadpole. […] From this and the number of subjects, the percent of tadpoles in which movement was suppressed were calculated.
After 1 to 30 minutes, they were again contacted with a rod to ensure the anesthetic effect had worn off.
In some examples, subanesthetic concentrations of ethanol were added into the aquarium water. Tadpoles in which movement was prevented with exposure to a test compound and ethanol but not with exposure to a test compound alone were classified as partial anesthetics.

[2] = system: mouse; conditions: for Effect on the animals: 62.5 mM solution in intralipid; for Effect on the animals / Lethality to the animals: intravenous
Procedure: Butyric acid was dissolved in water to form an 8 M solution. 0.5 mL of the 8 M solution of butyric acid was injected subcutaneously (at the back of the neck) into the mouse.
3-hydroxybutyric acid was dissolved in water to form 1 M, 1.5 M, and 2 M solutions. 0.2 mL of a 1.5 M solution of 3-hydroxybutyric acid was injected into a tail vein of a CD-1 mouse. […] This was repeated for at least 2 more times on subsequent days.
Ethylmalonic acid was dissolved in water to form 2 M, 3 M, and 4 M solutions. 0.2 mL of a 3 M solution of ethylmalonic acid was injected into a tail vein of a mouse. […] This was repeated for at least 2 more times on subsequent days.
Ethylmalonic acid was dissolved in water to form a 4 M solution. 0.5 mL of the 4 M solution of ethylmalonic acid was injected subcutaneously into the mouse.

[3] = system: CF-1 mice; experiment: Anticonvulsant test in mice: metrazol (pentylenetetrazol) tail vein infusion, time to twitch and seizure; assay type: in vivo, mouse
Procedure: CF-1 mice were used in this study. Number 20 PE tubing to cannulate a mouse tail vein was used. An infusion pump was used to deliver a solution at a rate of 0.34 mL/min. A hemostat was used to prevent backflow in the PE tubing before the experiment stated. To begin the experiment, the hemostat that was clamped to the PE 20 tubing was removed, the infusion of the solution was started into the tail IV of the mouse, and the timer was started.
The study reflects the time in seconds from the start of the infusion to the time of twitch and onset of seizure, or 90 seconds, whichever is sooner. When the seizure occurs, the infusion is turned off.
As a control, metrazol (pentylenetetrazol) in a 0.5% solution (5 mg/mL) in water was prepared. Pentylenetetrazol is used as a control to study seizure phenomena in and to identify compounds that may control seizure susceptibility. Solutions of 8 M butyric acid and 1.5 M 3-hydroxybutyric acid were made.
The time to twitch and time to seizure of the mouse in seconds is recorded in Tables 3-5, below.

[4] = read-out: Movement suppressed (%)
[5] = average of 8 mice, 1.5 M 3-hydroxybutyric acid solution plus metrazol
[6] = individual mice, 1.5 M 3-hydroxybutyric acid solution plus metrazol
[7] = average of 9 mice, metrazol alone
[8] = individual mice, metrazol 0.5% solution infused 0.34 mL/min tail vein
[9] = Concentration 62.5 mM in aquarium water

## CCC(O)C(=O)O (stereo not shown) [2-Hydroxybutyric acid, 2-hydroxybutyric acid]
[1]; [4]
  responders at 125000 µM: 0%

## CC(C)(C)CC(=O)O [3,3-Dimethylbutyric acid, 3,3-Dimethylbutanoicacid]
[1]; [4]
  responders at 25000 µM: 100%

## CC(C)(O)CC(=O)O [3-Hydroxy-3-methylbutyric acid, 3-Hydroxy-3-methylbutanoic acid]
[1]; [4]
  responders at 1600 µM: 0%
  responders at 6250 µM: 0%
  responders at 25000 µM: 0%
  responders at 100000 µM: 100%

## CCC(C)C(=O)C(=O)O (stereo not shown) [3-Methyl-2-oxovaleric acid, 3-Methyl-2-oxopentanoic acid]
[1]; [4]
  responders at 250000 µM: 33%

## Cc1cccc(C(=O)NCC(=O)O)c1 [3-Methylhippuric acid, (3-Methylbenzoyl)glycine]
[1]; [4]
  responders at 3125 µM: 0%

## CCC(C)CC(=O)O (stereo not shown) [3-Methylvaleric acid, 3-Methylpentanoic acid]
[1]; [4]
  responders at 20000 µM: 25%

## CC(O)CC(=O)O (stereo not shown) [3-hydroxybutyric acid]
[2]; 0.2 mL of 1.5 M solution in water, tail vein, CD-1 mouse
  Anesthetic effect on the mouse: became unconscious or anesthetic
[2]; 1 M solution in water, tail vein, CD-1 mouse
  Anesthetic effect on the mouse: did not have any observable effect
[2]; 2 M solution in water, tail vein, CD-1 mouse
  Lethality to the mouse: lethal
[3]; [5]
  3-Hydroxybutyric Acid and Metrazol Time to Seizures (seconds), Avg.: 56.9 s
  3-Hydroxybutyric Acid and Metrazol Time to Twitch (seconds), Avg.: 47.5 s
[3]; [6]
  3-Hydroxybutyric Acid and Metrazol Time to Seizures: 61 seconds and 74 seconds and 53 seconds (3×) and 48 seconds (2×) and 65 seconds
  3-Hydroxybutyric Acid and Metrazol Time to Twitch: 56 s and 54 s and 49 s and 47 s and 38 s and 50 s and 45 s and 41 s

## CC(=O)CCCC(=O)O [4-Acetylbutyric acid, 5-Oxohexanoic acid]
[1]; [4]
  responders at 25000 µM: 0%

## Cc1ccc(C(=O)NCC(=O)O)cc1 [4-Methylhippuric acid, (4-Methylbenzoyl)glycine]
[1]; [4]
  responders at 50000 µM: 0%
  responders at 150000 µM: 0%

## CC(C)CCC(=O)O [4-Methylvaleric acid]
[1]; [4]
  responders at 20000 µM: 0%

## O=C(O)CCCCC(=O)O [Adipic acid, Hexanedioic acid]
[1]; [4]
  responders at 50000 µM: 0%

## O=C(NC(O)C(=O)O)c1ccccc1 (stereo not drawn) [Alpha-Hydroxyhippuric acid, 2-Benzamido-2-hydroxyacetic acid]
[1]; [4]
  responders at 5000 µM: 33%
  responders at 10000 µM: 100%

## N=C(N)NCCC[C@H](N)C(=O)O [Arginine]
[1]; [4]
  responders at 46500 µM: 0%

## CC(C)(C(=O)O)C(=O)O [Dimethylmalonic acid]
[1]; [4]
  responders at 125000 µM: 60%
  responders at 250000 µM: 60%

## CCO [Ethanol control, Ethanol, reference compound]
[1]; [4]
  responders at 100000 µM: 0%
  responders at 150000 µM: 0%
  responders at 200000 µM: 0%
  responders at 250000 µM: 33%

## CCC(C(=O)O)C(=O)O [Ethyl Malonic Acid, 2-Ethylmalonic acid]
[2]; 0.2 mL of 3 M solution in water, tail vein
  Anesthetic effect on the mouse: became unconscious
[2]; 0.5 mL of 4 M solution in water, subcutaneous
  Anesthetic effect on the mouse: became sedated, anesthetized, or lose consciousness
[2]; 2 M solution in water, tail vein
  Anesthetic effect on the mouse: did not have any observable effect
[2]; 4 M solution in water, tail vein
  Lethality to the mouse: lethal
[1]; [4]
  responders at 16000 µM: 0%
  responders at 62500 µM: 0%
  responders at 125000 µM: 100%
  responders at 250000 µM: 100%

## NC(=O)CC[C@H](N)C(=O)O [Glutamine]
[1]; [4]
  responders at 25000 µM: 0%
  responders at 50000 µM: 100%
  responders at 100000 µM: 100%

## O=C(O)CCCC(=O)O [Glutaric acid]
[1]; [4]
  responders at 7800 µM: 0%
  responders at 31000 µM: 0%
  responders at 125000 µM: 0%

## O=C(O)Cc1c[nH]c2ccccc12 [Indole-3-acetic acid, 2-(1H-indol-3-yl)acetic acid]
[1]; [4]
  responders at 12500 µM: 0%

## CC[C@H](C)[C@H](N)C(=O)O [Isoleucine]
[1]; [4]
  responders at 25000 µM: 0%

## CC(C)C(C(=O)O)C(=O)O [Isopropyl malonic acid, 2-isopropylmalonic acid]
[1]; [4]
  responders at 1600 µM: 0%
  responders at 6250 µM: 0%
  responders at 25000 µM: 50%

## O=C(O)c1cc(O)c2ccccc2n1 [Kynurenic acid, 4-hydroxyquinoline-2-carboxylic acid]
[1]; [4]
  responders at 12500 µM: 0%

## NC(=O)C[C@H](N)C(=O)O [L-Asparagine, Asparagine]
[1]; [4]
  responders at 100000 µM: 0%

## N[C@@H](CO)C(=O)O [L-Serine, Serine]
[1]; [4]
  responders at 114000 µM: 0%

## CC(C)[C@H](N)C(=O)O [L-valine, Valine]
[1]; [4]
  responders at 7800 µM: 0%
  responders at 31000 µM: 0%
  responders at 125000 µM: 0%
  responders at 500000 µM: 40%

## O=C(O)C(O)c1ccccc1 (stereo not shown) [Mandelic acid, 2-Hydroxy-2-phenylacetic acid]
[1]; [4]
  responders at 250000 µM: 0%
  responders at 300000 µM: 100%
  responders at 500000 µM: 100%

## C1CCc2nnnn2CC1 [Metrazol, pentylenetetrazol, reference compound]
[3]; [7]
  Metrazol alone Time to Seizures (seconds), Avg.: 45.7 s
  Metrazol alone Time to Twitch (seconds), Avg.: 37.3 s
[3]; [8]
  Metrazol alone Time to Seizures: 43 seconds (2×) and 42 seconds (2×) and 59 seconds and 45 seconds and 39 seconds and 49 seconds (2×)
  Metrazol alone Time to Twitch: 33 seconds and 36 seconds (2×) and 37 seconds and 52 seconds and 34 seconds (2×) and 31 seconds and 43 seconds

## O=C(O)C(=O)Cc1ccccc1 [Phenylpyruvic acid, 2-Oxo-3-phenylpropanoic acid]
[1]; [4]
  responders at 62500 µM: 100%
  responders at 125000 µM: 100%

## O=C(O)[C@@H]1CCCN1 [Proline]
[1]; [4]
  responders at 103000 µM: 0%

## O=C(O)c1ccc2ccccc2n1 [Quinaldic acid, Quinoline-2-carboxylic acid]
[1]; [4]
  responders at 25000 µM: 16%

## C[C@@H](O)CC(=O)O [R-3-hydroxybutyric acid, (R)-3 -Hydroxybutanoic acid]
[1]; [4]
  responders at 100000 µM: 0%
  responders at 200000 µM: 0%
  responders at 250000 µM: 0%
  responders at 300000 µM: 0%
  responders at 350000 µM: 0%
  responders at 400000 µM: 46%
  responders at 500000 µM: 100%

## C[C@H](O)CC(=O)O [S-3-hydroxybutyric acid, (S)-3-Hydroxybutanoic acid]
[1]; [4]
  responders at 100000 µM: 0%
  responders at 200000 µM: 0%
  responders at 250000 µM: 14%
  responders at 300000 µM: 17%
  responders at 350000 µM: 50%
  responders at 400000 µM: 92%
  responders at 500000 µM: 100%

## O=C(O)CCCCCCC(=O)O [Suberic acid, Octanedioic acid]
[1]; [4]
  responders at 10000 µM: 50%

## N[C@@H](Cc1c[nH]c2ccccc12)C(=O)O [Tryptophan]
[1]; [4]
  responders at 12500 µM: 0%

## CCOC(=O)C(CC)C(=O)OCC [diethyl ethyl malonate, Diethyl ethyl malonate]
[2]
  Effect on the animals: lethargic and those loss coordination

## CCOC(=O)C(CC)(C(=O)OCC)c1ccccc1 [diethyl ethylphenylmalonate]
[2]
  Effect on the animals: lethargic and those loss coordination
[2]; 250 mM solution in intralipid
  Lethality to the animals: lethal
[2]; 1M solution in intralipid
  Lethality to the animals: lethal

## CCOC(=O)[C@@H](O)c1ccccc1 [ethyl (S)-(+)-mandelate]
[2]
  Effect on the animals: lethargic and those loss coordination
[2]; 250 mM solution in intralipid
  Lethality to the animals: lethal
[2]; 1M solution in intralipid
  Lethality to the animals: lethal

## CCCC(=O)OCC [ethyl butyrate]
[2]
  Effect on the animals: lethargic and those loss coordination
[2]; 250 mM solution in intralipid
  Lethality to the animals: lethal
[2]; 1M solution in intralipid
  Lethality to the animals: lethal

## Fumaric acid
[1]; Concentration 25 mM in aquarium water
  Movement suppressed (%): 40%
[1]; Concentration (mM) 25 + 150 EtOH
  Movement suppressed (%): 80%

## Glycine
[1]; Concentration (mM) 250 + 150 EtOH
  Movement suppressed (%): 100%

## Guanidine
[1]; [9]
  Movement suppressed (%): 0%
[1]; Concentration (mM) 62.5 + 150 EtOH
  Movement suppressed (%): 100%

## Succinic acid
[1]; [9]
  Movement suppressed (%): 0%
[1]; Concentration (mM) 62.5 + 200 EtOH
  Movement suppressed (%): 66%

## Tartaric acid [L-Tartaric acid]
[1]; Concentration 50 mM in aquarium water
  Movement suppressed (%): 0%
[1]; Concentration (mM) 50 + 150 EtOH
  Movement suppressed (%): 100%

## ethyl isovaleric acid
[2]
  Effect on the animals: lethargic and those loss coordination
